Target: ASK1 (Homo sapiens (Human), UniProt Q99683)
Assay: HTRF KinEASE Assay (TR-FRET), inhibition of ASK1
Assay type: biochemical
Details: 5 nM ASK1 kinase, 1 uM STK3 peptide substrate, 100 uM ATP, 3 hours
From the text: Assays HTRF® KinEASE™ Assay ASK1 was purchased from Thermofisher (Catalogue # PV4011), ATP was purchased from Sigma (Catalogue # A7699), HTRF® KinEASE™ Assay System was obtained from Cisbio (Bedford, Mass.). ½ Area plate was purchased from Perkin Elmer (Catalogue # #6005560). HTRF® KinEASE™-STK is a generic method for measuring serine/threonine kinase activities using a time-resolved fluorescence resonance energy transfer (TR-FRET) immunoassay. […] The STK3-antibody labeled with Eu^3+-Cryptate and 125 nM streptavidin-XL665 are mixed in a single addition with stop reagents provided by the Cisbio kit used to stop the kinase reaction. Fluorescence is detected using an Envision Multilabeled 2014 reader from PerkinElmer. The Fluorescence is measured at 615 nm (Cryptate) and 665 nm (XL665) and a ratio of 665 nm/615 nm is calculated for each well. The resulting TR-FRET is proportional to the phosphorylation level. Staurosporine was used as the positive control. IC50 was determined by XLfit 5.3.

Sequence of ASK1 (Q99683 whole entry): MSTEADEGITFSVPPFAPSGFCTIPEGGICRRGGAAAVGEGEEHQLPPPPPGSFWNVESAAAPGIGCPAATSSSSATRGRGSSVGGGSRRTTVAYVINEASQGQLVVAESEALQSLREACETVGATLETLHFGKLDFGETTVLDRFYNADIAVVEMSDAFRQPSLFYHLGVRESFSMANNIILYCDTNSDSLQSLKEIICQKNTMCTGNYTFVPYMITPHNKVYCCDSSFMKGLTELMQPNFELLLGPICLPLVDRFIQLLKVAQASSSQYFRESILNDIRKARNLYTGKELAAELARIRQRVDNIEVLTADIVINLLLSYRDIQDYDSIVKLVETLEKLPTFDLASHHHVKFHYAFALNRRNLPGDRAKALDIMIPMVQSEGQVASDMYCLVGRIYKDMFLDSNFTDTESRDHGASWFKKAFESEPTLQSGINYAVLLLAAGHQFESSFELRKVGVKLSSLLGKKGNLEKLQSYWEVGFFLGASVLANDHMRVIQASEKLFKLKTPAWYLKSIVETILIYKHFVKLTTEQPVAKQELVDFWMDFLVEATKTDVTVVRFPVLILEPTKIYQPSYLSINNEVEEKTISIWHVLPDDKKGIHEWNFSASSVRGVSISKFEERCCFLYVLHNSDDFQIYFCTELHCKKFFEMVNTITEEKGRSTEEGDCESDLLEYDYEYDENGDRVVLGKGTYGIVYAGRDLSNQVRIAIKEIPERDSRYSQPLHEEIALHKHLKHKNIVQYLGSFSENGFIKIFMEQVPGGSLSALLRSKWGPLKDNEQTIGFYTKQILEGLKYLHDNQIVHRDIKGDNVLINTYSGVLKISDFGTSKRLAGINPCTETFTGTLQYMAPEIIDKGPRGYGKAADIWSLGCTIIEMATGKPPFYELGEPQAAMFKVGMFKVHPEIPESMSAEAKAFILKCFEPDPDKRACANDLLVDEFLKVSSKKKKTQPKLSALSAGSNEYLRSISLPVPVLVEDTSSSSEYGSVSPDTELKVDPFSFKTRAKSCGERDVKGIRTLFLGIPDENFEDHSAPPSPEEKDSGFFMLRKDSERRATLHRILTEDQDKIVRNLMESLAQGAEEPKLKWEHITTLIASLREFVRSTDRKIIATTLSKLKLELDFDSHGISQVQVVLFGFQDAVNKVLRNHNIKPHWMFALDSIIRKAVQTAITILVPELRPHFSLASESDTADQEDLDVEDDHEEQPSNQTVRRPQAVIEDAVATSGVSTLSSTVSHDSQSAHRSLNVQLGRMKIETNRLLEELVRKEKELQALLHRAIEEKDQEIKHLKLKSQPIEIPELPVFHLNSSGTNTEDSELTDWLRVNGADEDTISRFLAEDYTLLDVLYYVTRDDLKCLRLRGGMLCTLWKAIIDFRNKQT

Row | SMILES | IC50 [nM]
1 | COc1nc2ccc(C(=O)Nc3cccc(-c4nncn4C(C)C)n3)cc2nc1N1CCOCC1 [Example 2] | 100 to 1000
2 | COc1nc2cc(F)c(C(=O)Nc3cccc(-c4nncn4C(C)C)n3)cc2nc1N1CCCCC1 [Example 3] | 10 to 100
3 | CC(C)Nc1nc2cc(C(=O)Nc3cccc(-c4nncn4C(C)C)n3)ccc2nc1OC(C)C [Example 4] | 10 to 100
4 | COc1nc2ccc(C(=O)Nc3cccc(-c4nncn4C(C)C)n3)cc2nc1N1CCCCC1 [Example 5] | 100 to 1000
5 | CC(C)Oc1nc2ccc(C(=O)Nc3cccc(-c4nncn4C(C)C)n3)cc2nc1N1CCCCC1 [Example 6] | > 1000
6 | CC(C)Oc1nc2ccc(C(=O)Nc3cccc(-c4nncn4C(C)C)n3)cc2nc1N1CCOCC1 [Example 7] | 100 to 1000
7 | COc1nc2ccc(C(=O)Nc3cccc(-c4nncn4C(C)C)n3)cc2nc1NC(C)C [Example 8] | 100 to 1000
8 | CC(C)Oc1nc2cc(F)c(C(=O)Nc3cccc(-c4nnnn4C(C)C)n3)cc2nc1N(C)C(C)C [Example 9] | > 1000
9 | CC(C)Oc1nc2cc(F)c(C(=O)Nc3cccc(-c4nnnn4C(C)C)n3)cc2nc1OC(C)C [Example 10] | > 1000
10 | CC(C)Oc1nc2cc(F)c(C(=O)Nc3cccc(-c4nncn4C(C)C)n3)cc2nc1OC(C)C [Example 11] | 100 to 1000
11 | CC(C)CN(C)c1nc2cc(C(=O)Nc3cccc(-c4nnnn4C(C)C)n3)c(F)cc2nc1OC(C)C [Example 12] | > 1000
12 | CC(C)CN(C)c1nc2cc(C(=O)Nc3cccc(-c4nncn4C(C)C)n3)c(F)cc2nc1OC(C)C [Example 13] | 100 to 1000
13 | CC(C)Nc1nc2cc(C(=O)Nc3cccc(-c4nnnn4C(C)C)n3)c(F)cc2nc1OC(C)C [Example 14] | > 1000
14 | CC(C)Nc1nc2cc(C(=O)Nc3cccc(-c4nncn4C(C)C)n3)c(F)cc2nc1OC(C)C [Example 15] | 10 to 100
15 | COc1nc2cc(F)c(C(=O)Nc3cccc(-c4nnnn4C(C)C)n3)cc2nc1N1CCCCC1 [Example 16] | 100 to 1000
16 | CC(C)Nc1nc2cc(C(=O)Nc3cccc(-c4nnnn4[C@@H](C)CO)n3)c(F)cc2nc1OC(C)C [Example 17] | > 1000
17 | CC(C)n1cnnc1-c1cccc(NC(=O)c2cc3ccccc3cn2)n1 [Example 18] | 1 to 10
18 | CC(C)n1cnnc1-c1cccc(NC(=O)c2cc3cc(Br)ccc3cn2)n1 [Example 19, 6-bromo-N-(6-(4-isopropyl-4H-1,2,4-triazol-3-yl)pyridin-2-yl)isoquinoline-3-carboxamide] | 1 to 10
19 | CC(C)n1nnnc1-c1cccc(NC(=O)c2cc3cc(Br)ccc3cn2)n1 [Example 20] | > 1000
20 | CC(C)n1cnnc1-c1cccc(NC(=O)c2cc3cc(N4CCCCC4)ccc3cn2)n1 [Example 21] | 1 to 10
21 | CC(C)n1cnnc1-c1cccc(NC(=O)c2cc3cc(-n4cnc(C5CC5)c4)ccc3cn2)n1 [Example 22] | 1 to 10
22 | CCn1nccc1-c1ccc2cnc(C(=O)Nc3cccc(-c4nncn4C(C)C)n3)cc2c1 [Example 23] | 10 to 100
23 | CCN(Cc1ccccc1)c1ccc2ccc(C(=O)Nc3cccc(-c4nncn4C(C)C)n3)cc2n1 [Example 31] | > 1000
24 | CC(C)n1cnnc1-c1cccc(NC(=O)c2ccc3cc(-c4ccc(C(C)(C)C)cc4)cnc3c2)n1 [Example 37] | > 1000
25 | CC(C)n1cnnc1-c1cccc(NC(=O)c2cc3ccccc3cc2F)n1 [Example 40] | 100 to 1000
26 | CC(C)n1nnnc1-c1cccc(NC(=O)c2cc3ccccc3cc2F)n1 [Example 41] | > 1000

The remaining lines, values ahead:

Row | IC50 [nM] | SMILES
27 | 100 to 1000 | CC(C)n1cnnc1-c1cccc(NC(=O)c2ccc3nccnc3c2)n1 [Example 1]
28 | 100 to 1000 | CC(C)n1cnnc1-c1cccc(NC(=O)c2ccc3ccc(N4CCOCC4)nc3c2)n1 [Example 24]
29 | > 1000 | CC(C)n1cnnc1-c1cccc(NC(=O)c2ccc3ccc(N(C)C)nc3c2)n1 [Example 25]
30 | 10 to 100 | CC(C)n1cnnc1-c1cccc(NC(=O)c2ccc3ccc(N4CCCCC4)nc3c2)n1 [Example 26]
31 | > 1000 | CC(C)n1cnnc1-c1cccc(NC(=O)c2ccc3ccc(N4CCN(C(C)(C)C)CC4)nc3c2)n1 [Example 27]
32 | > 1000 | CC(C)n1cnnc1-c1cccc(NC(=O)c2ccc3ccc(NC4CCCCC4)nc3c2)n1 [Example 28]
33 | > 1000 | CC(C)n1cnnc1-c1cccc(NC(=O)c2ccc3ccc(N4CC5(COC5)C4)nc3c2)n1 [Example 29]
34 | 100 to 1000 | CC(C)n1cnnc1-c1cccc(NC(=O)c2ccc3ccc(N4CC5CCC(C4)O5)nc3c2)n1 [Example 30]
35 | 10 to 100 | COCCNc1ccc2ccc(C(=O)Nc3cccc(-c4nncn4C(C)C)n3)cc2n1 [Example 33]
36 | 100 to 1000 | CC(C)n1cnnc1-c1cccc(NC(=O)c2ccc3ccc(Cl)nc3c2)n1 [Example 34]
37 | > 1000 | CC(C)n1cnnc1-c1cccc(NC(=O)c2ccc3cccnc3c2)n1 [Example 35]
38 | 100 to 1000 | CC(C)n1cnnc1-c1cccc(NC(=O)c2ccc3cc(Br)cnc3c2)n1 [Example 36]
39 | 10 to 100 | CC(C)n1cnnc1-c1cccc(NC(=O)c2ccc3cc(N4CCOCC4)cnc3c2)n1 [Example 38]
40 | 100 to 1000 | CC(C)n1cnnc1-c1cccc(NC(=O)c2ccc3ccccc3c2)n1 [Example 39]

— US10253018B2, “Apoptosis signal-regulating kinase 1 inhibitors and methods of use thereof” (ENANTA PHARMACEUTICALS, INC., priority 2017, dated 2019)
